Experimental findings from US20230271941A1, “COMPOUNDS AND COMPOSITIONS FOR TREATING CONDITIONS ASSOCIATED WITH STING ACTIVITY” (IFM Due, Inc., priority 2020, published 2023) are described below.

The assay deals with T1, hSTING (Homo sapiens, UniProt Q86WV6, G230A/H232R/R293Q/R71H).
T1 construct: host or cells: THP1-Dual KO-IFNAR2 cells
T1 sequence (Q86WV6 whole entry R71H/G230A/H232R/R293Q): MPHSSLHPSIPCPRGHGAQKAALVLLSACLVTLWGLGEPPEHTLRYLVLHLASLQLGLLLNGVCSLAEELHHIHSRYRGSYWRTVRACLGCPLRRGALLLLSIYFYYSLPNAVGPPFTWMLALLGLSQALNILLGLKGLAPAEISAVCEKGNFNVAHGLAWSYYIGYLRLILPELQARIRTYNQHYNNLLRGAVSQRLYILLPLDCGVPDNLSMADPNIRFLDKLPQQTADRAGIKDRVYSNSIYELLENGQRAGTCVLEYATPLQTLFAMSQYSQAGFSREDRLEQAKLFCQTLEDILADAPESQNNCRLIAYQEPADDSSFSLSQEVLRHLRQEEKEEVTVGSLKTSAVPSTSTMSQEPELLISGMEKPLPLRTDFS
The experiment in a line: STING reporter assay: THP1-Dual KO-IFNAR2 cells stimulated with 2′3′cGAMP, luciferase reporter activity. The class given is cell-based. Conditions: 15 μM 2′3′cGAMP transfected with Lipofectamine 2000, 24 h, luciferase reporter (QUANTI-Luc). As to the method: STING pathway activation by the compounds described herein was measured using THP1-Dual™ cells (KO-IFNAR2).
THP1-Dual™ KO-IFNAR2 Cells (obtained from invivogen) were maintained in RPMI, 10% FCS, 5 ml P/S, 2 mM L-glut, 10 mM Hepes, and 1 mM sodium pyruvate. Compounds were spotted in empty 384 well tissue culture plates (Greiner 781182) by Echo for a final concentration of 0.0017-100 μM. Cells were plated into the TC plates at 40 μL per well, 2×10E6 cells/mL. For activation with STING ligand, 2′3′cGAMP (MW 718.38, obtained from Invivogen), was prepared in Optimem media.
The following solutions were prepared for each 1×384 plate: • Solution A: 2 mL Optimem with one of the following stimuli: • 60 μL of 10 mM 2′3′cGAMP→150 μM stock • Solution B: 2 mL Optimem with 60 μL Lipofectamine 2000→Incubate 5 min at RT
2 mL of solution A and 2 ml Solution B was mixed and incubated for 20 min at room temperature (RT). 20 μL of transfection solution (A+B) was added on top of the plated cells, with a final 2′3′cGAMP concentration of 15 μM. The plates were then centrifuged immediately at 340 g for 1 minute, after which they were incubated at 37° C., 5% CO2, >98% humidity for 24 h. Luciferase reporter activity was then measured. EC50 values were calculated by using standard methods known in the art.
Luciferase reporter assay: 10 μL of supernatant from the assay was transferred to white 384-plate with flat bottom and squared wells. One pouch of QUANTI-Luc™ Plus was dissolved in 25 mL of water. 100 μL of QLC Stabilizer per 25 mL of QUANTI-Luc™Plus solution was added. 50 μL of QUANTI-Luc™ Plus/QLC solution per well was then added. Luminescence was measured on a Platereader (e.g., Spectramax I3X (Molecular Devices GF3637001)).
Luciferase reporter activity was then measured. EC50 values were calculated by using standard methods known in the art.
As for `O=C(Nc1c[nH]c2cc(F)c(F)cc12)c1cc(-c2ccc(Cl)cc2)no1` [Compound 171, 3-(4-chlorophenyl)-N-(5,6-difluoro-1H-indol-3-yl)isoxazole-5-carboxamide], the EC50 lay within 0.2 to 1 µM.
The compound `O=C(Nc1c[nH]c2ccccc12)c1cn(Cc2ccc(C(F)(F)F)c(Cl)c2)cn1` [Compound 136, 1-(3-chloro-4-(trifluoromethyl)benzyl)-N-(1H-indol-3-yl)-1H-imidazole-4-carboxamide] returned an EC50 of 0.2 to 1 µM.
With `O=C(Nc1c[nH]c2cc(F)c(F)cc12)c1cc(Cc2ccc(C(F)(F)F)cc2)[nH]n1` [Compound 145, N-(5,6-difluoro-1H-indol-3-yl)-5-(4-(trifluoromethyl)benzyl)-1H-pyrazole-3-carboxamide] the figure was 0.2 to 1 µM; with `O=C(Nc1c[nH]c2c(F)cncc12)c1ccn(Cc2ccc(C(F)(F)F)cc2)n1` [Compound 131, N-(7-fluoro-1H-pyrrolo[3,2-c]pyridin-3-yl)-1-(4-(trifluoromethyl)benzyl)-1H-pyrazole-3-carboxamide], 1 to 5 µM.
With `O=C(Nc1c[nH]c2cc(F)c(F)cc12)c1cc(-c2cc(F)cc(F)c2)[nH]n1` [Compound 173, N-(5,6-difluoro-1H-indol-3-yl)-5-(3,5-difluorophenyl)-1H-pyrazole-3-carboxamide] the figure was 0.2 to 1 µM; with `O=C(Nc1c[nH]c2cc(F)c(F)cc12)c1cc(-c2ccc(F)cc2F)on1` [Compound 170, N-(5,6-difluoro-1H-indol-3-yl)-5-(2,4-difluorophenyl)isoxazole-3-carboxamide], 0.2 to 1 µM; with `O=C(Nc1c[nH]c2ccc(-c3ccc(CO)c(F)c3)cc12)c1cn(Cc2ccc(C(F)(F)F)cc2)cn1` [Compound 137, N-(5-(3-fluoro-4-(hydroxymethyl)phenyl)-1H-indol-3-yl)-1-(4-(trifluoromethyl)benzyl)-1H-imidazole-4-carboxamide], 1 to 5 µM.
In turn, `O=C(Nc1c[nH]c2cc(F)c(F)cc12)c1csc(Cc2ccccc2)n1` [Compound 112, 2-benzyl-N-(5,6-difluoro-1H-indol-3-yl)-1,3-thiazole-4-carboxamide] returned an EC50 of 1 to 5 µM.
With `COc1ccc2[nH]cc(NC(=O)c3cnn(Cc4ccc(C(F)(F)F)cc4)c3)c2n1` [Compound 118, N-(5-methoxy-1H-pyrrolo[3,2-b]pyridin-3-yl)-1-(4-(trifluoromethyl)benzyl)-1H-pyrazole-4-carboxamide] the figure was 1 to 5 µM.
`O=C(Nc1c[nH]c2cc(F)c(F)cc12)c1csc(-c2ccccc2)n1` [Compound 111, N-(5,6-difluoro-1H-indol-3-yl)-2-phenyl-1,3-thiazole-4-carboxamide] displayed an EC50 of 1 to 5 µM.
In turn, `O=C(Nc1c[nH]c2cc(F)c(Cl)cc12)c1cnn(Cc2ccc(C(F)(F)F)cc2)c1` [Compound 141, N-(5-chloro-6-fluoro-1H-indol-3-yl)-1-(4-(trifluoromethyl)benzyl)-1H-pyrazole-4-carboxamide] gave an EC50 of 0.04 to 0.2 µM.
Next, `COc1ccc2[nH]cc(NC(=O)c3ccn(Cc4ccc(C(F)(F)F)cc4)n3)c2n1` [Compound 134, N-(5-methoxy-1H-pyrrolo[3,2-b]pyridin-3-yl)-1-(4-(trifluoromethyl)benzyl)-1H-pyrazole-3-carboxamide]: 1 to 5 µM; `O=C(Nc1c[nH]c2cc(F)c(F)cc12)c1ncn(-c2ccccc2)n1` [Compound 110, N-(5,6-difluoro-1H-indol-3-yl)-1-phenyl-1H-1,2,4-triazole-3-carboxamide]: 0.04 to 0.2 µM.
The compound `CC(c1ccc(C(F)(F)F)cc1)n1cc(C(=O)Nc2c[nH]c3cc(F)c(F)cc23)cn1` (single isomer, unassigned) [Compound 120, (R or S)-N-(5,6-difluoro-1H-indol-3-yl)-1-(1-(4-(trifluoromethyl)phenyl)ethyl)-1H-pyrazole-4-carboxamide] returned an EC50 of 0.2 to 1 µM.
On to `O=C(Nc1c[nH]c2cc(F)ccc12)c1ccn(Cc2ccc(C(F)(F)F)cc2)n1` [Compound 103, N-(6-fluoro-1H-indol-3-yl)-1-(4-(trifluoromethyl)benzyl)-1H-pyrazole-3-carboxamide], for which the EC50 is 0.2 to 1 µM.
Next, `COc1cncc2c(NC(=O)c3cnn(Cc4ccc(C(F)(F)F)cc4)c3)c[nH]c12` [Compound 117, N-(7-methoxy-1H-pyrrolo[3,2-c]pyridin-3-yl)-1-(4-(trifluoromethyl)benzyl)-1H-pyrazole-4-carboxamide]: 5 to 100 µM.
Compound `O=C(Nc1c[nH]c2cc(F)c(F)cc12)c1cnn(C2CCCCC2)c1` [Compound 116, 1-cyclohexyl-N-(5,6-difluoro-1H-indol-3-yl)-1H-pyrazole-4-carboxamide] yielded an EC50 of 1 to 5 µM.
With `Cc1cc(Cn2cc(C(=O)Nc3c[nH]c4ccc(Cl)cc34)cn2)cnc1OCC(F)(F)F` [Compound 160, N-(5-chloro-1H-indol-3-yl)-1-((5-methyl-6-(2,2,2-trifluoroethoxy)pyridin-3-yl)methyl)-1H-pyrazole-4-carboxamide] the figure was 0.04 to 0.2 µM; with `O=C(Nc1c[nH]c2cc(F)c(F)cc12)c1cnn(CCOc2cccnc2)c1` [Compound 124, N-(5,6-difluoro-1H-indol-3-yl)-1-(2-(pyridin-3-yloxy)ethyl)-1H-pyrazole-4-carboxamide], 5 to 100 µM; with `CC(C)n1cc(-c2ccc3[nH]cc(NC(=O)c4cn(Cc5ccc(C(F)(F)F)cc5)cn4)c3c2)cn1` [Compound 138, N-(5-(1-isopropyl-1H-pyrazol-4-yl)-1H-indol-3-yl)-1-(4-(trifluoromethyl)benzyl)-1H-imidazole-4-carboxamide], 0.2 to 1 µM.
Next, `O=C(Nc1c[nH]c2cc(Cl)ccc12)c1cnn(Cc2ccc(C(F)(F)F)cc2)c1` [Compound 102, N-(6-chloro-1H-indol-3-yl)-1-[[4-(trifluoromethyl)phenyl]methyl]pyrazole-4-carboxamide]: 0.2 to 1 µM; `O=C(Nc1c[nH]c2cc(F)c(F)cc12)c1ccn(CCOc2cccnc2)n1` [Compound 147, N-(5,6-difluoro-1H-indol-3-yl)-1-(2-(pyridin-3-yloxy)ethyl)-1H-pyrazole-3-carboxamide]: 5 to 100 µM; `O=C(Nc1c[nH]c2cc(F)c(F)cc12)c1csc(-c2cccc(C(F)(F)F)c2)n1` [Compound 101, N-(5,6-difluoro-1H-indol-3-yl)-2-(3-(trifluoromethyl)phenyl)thiazole-4-carboxamide]: 0.2 to 1 µM.
For the compound `O=C(Nc1c[nH]c2c(F)cncc12)c1cnn(Cc2ccc(C(F)(F)F)cc2)c1` [Compound 128, N-(7-fluoro-1H-pyrrolo[3,2-c]pyridin-3-yl)-1-(4-(trifluoromethyl)benzyl)-1H-pyrazole-4-carboxamide], the concentration giving a half-maximal response (EC50) lay in the range of 0.2 to 1 µM.
In turn, `O=C(Nc1c[nH]c2cc(F)c(F)cc12)c1cc(-c2ccc(Cl)cc2)on1` [Compound 167, 5-(4-chlorophenyl)-N-(5,6-difluoro-1H-indol-3-yl)isoxazole-3-carboxamide] returned an EC50 of 0.2 to 1 µM.
Turning to `O=C(Nc1c[nH]c2cc(F)ccc12)c1cnn(Cc2ccc(C(F)(F)F)cc2)c1` [Compound 143, N-(6-fluoro-1H-indol-3-yl)-1-(4-(trifluoromethyl)benzyl)-1H-pyrazole-4-carboxamide], the EC50 lay within 0.2 to 1 µM.
Next, `O=C(Nc1c[nH]c2cc(F)c(F)cc12)c1ccnn1CCOc1cccnc1` [Compound 127, N-(5,6-difluoro-1H-indol-3-yl)-1-(2-(pyridin-3-yloxy)ethyl)-1H-pyrazole-5-carboxamide]: 5 to 100 µM; `O=C(Nc1c[nH]c2cc(F)c(F)cc12)c1cn(Cc2ccc(C(F)(F)F)cc2)nn1` [Compound 105, N-(5,6-difluoro-1H-indol-3-yl)-1-(4-(trifluoromethyl)benzyl)-1H-1,2,3-triazole-4-carboxamide]: 0.2 to 1 µM; `O=C(Nc1c[nH]c2cc(Cl)c(F)cc12)c1cnn(Cc2ccc(C(F)(F)F)cc2)c1` [Compound 107, N-(6-chloro-5-fluoro-1H-indol-3-yl)-1-(4-(trifluoromethyl)benzyl)-1H-pyrazole-4-carboxamide]: 0.2 to 1 µM.
`O=C(Nc1c[nH]c2cc(F)c(F)cc12)c1cnn(CCOc2cncc(C(F)(F)F)c2)c1` [Compound 161, N-(5,6-difluoro-1H-indol-3-yl)-1-(2-((5-(trifluoromethyl)pyridin-3-yl)oxy)ethyl)-1H-pyrazole-4-carboxamide] gave an EC50 of 0.2 to 1 µM.
With `O=C(Nc1c[nH]c2ccc(Oc3ccccc3)cc12)c1cnn(Cc2ccc(C(F)(F)F)cc2)c1` [Compound 154, N-(5-phenoxy-1H-indol-3-yl)-1-(4-(trifluoromethyl)benzyl)-1H-pyrazole-4-carboxamide] the figure was 0.04 to 0.2 µM.
